From patent publication US8592407B2, “Pyrrolo[2,1-c][1,4] benzodiazepine derivatives with dithiocarbamate side chains and process for the preparation thereof” (Council of Scientific & Industrial Research, priority 2008, dated 2013)

Tests used:
Lung A-549 = assay: Preliminary in vitro cytotoxicity on six cell lines
Colon HCT-15 = assay: as above; details: unit assumed
Neuroblastoma IMR-32 = assay: as above
Ovary OVCAR-5 = assay: as above
Liver HEP-2 = assay: as above; details: unit assumed
calf thymus DNA (CT-DNA) = assay: Thermal denaturation studies with duplex-form calf thymus DNA; assay type: binding; details: [PBD]:[DNA] 1:5, CT-DNA 100 μM, ligand 20 μM, pH 7.00; for ΔTm after incubation at 37° C. for 0 h: 0 h at 37° C.; for ΔTm after incubation at 37° C. for 18 h: 18 h at 37° C.
Procedure: Compounds have been subjected to thermal denaturation studies with duplex-form calf thymus DNA (CT-DNA) using an modification of a reported procedure (Newman, M. S. Carcinog-compr. Surv. 1976, 1, 203; (b) Hecht, S. S.; Loy, M.; Hoffman, Carcinog-compr. Surv. 1976, 1, 325). Working solutions in aqueous buffer (10 mM NaH2PO4/Na2HPO4, 1 mM Na2EDTA, pH 7.00+0.01) containing CT-DNA (100 μm in phosphate) and the PBD (20 μm) have been prepared by addition of concentrated PBD solutions in DMSO to obtain a fixed [PBD]/[DNA] molar ratio of 1:5. The DNA−PBD solutions have been incubated at 37° C. for 0 and 18 h prior to analysis. Samples have been monitored at 260 nm using a Beckman DU-800 spectrophotometer fitted with high performance temperature controller, and heated at 1° C. min^−1
in the 40-110° C. range. DNA helix[…]coil transition temperatures (Tm) have been obtained from the maxima in the d(A260)/dT derivative plots. Drug-induced alterations in DNA melting behavior are given by: ΔTm=Tm(DNA+PBD)−Tm (DNA alone), where the Tm value for the PBD-free CT-DNA is 69.1±0.01.

Colon 502713 = assay: Preliminary in vitro cytotoxicity on six cell lines; details: concentration (mg/ml) 1 × 10^−5 M
[1] = concentration (mg/ml) 1 × 10^−6 M
[2] = concentration (mg/ml) 1 × 10^−5 M

COc1cccc2c1C(=O)c1c(O)c3c(c(O)c1C2=O)C[C@@](O)(C(=O)CO)C[C@@H]3O[C@H]1C[C@H](N)[C@H](O)[C@H](C)O1 [Adriamycin, reference compound]
Preliminary in vitro cytotoxicity data (Lung A-549; [1]): 61
Preliminary in vitro cytotoxicity data (Colon HCT-15; [1]): 58%
Preliminary in vitro cytotoxicity data (Neuroblastoma IMR-32; [1]): 80
Preliminary in vitro cytotoxicity data (Ovary OVCAR-5; [1]): 30
Preliminary in vitro cytotoxicity data (Liver HEP-2; [1]): 31%

COc1cc2c(cc1OCCCCCN1CCN(C(=S)SCCC(C#N)(c3ccccc3)c3ccccc3)CC1)N=C[C@@H]1CCCN1C2=O [Compound 12d, 3-cyano-3,3-diphenylpropyl 4-(5-[(11aS)-7-(methyloxy)-5-oxo-2,3,5,11a-tetrahydro-1H-benzo[e]pyrrolo[1,2-a][1,4]diazepin-8-yl]oxypentyl)hexahydro-1-pyrazinecarbodithioate]
ΔTm after incubation at 37° C. for 0 h (calf thymus DNA (CT-DNA)): 2.0 °C
ΔTm after incubation at 37° C. for 18 h (calf thymus DNA (CT-DNA)): 2.1 °C

COc1cc2c(cc1OCCCSC(=S)N1CCN(CCCN3C(=O)c4cccc5cccc(c45)C3=O)CC1)N=C[C@@H]1CCCN1C2=O [Compound 13b, 3-[(11aS)-7-(methyloxy)-5-oxo-2,3,5,11a-tetrahydro-1H-benzo[e]pyrrolo[1,2-a][1,4]diazepin-8-yl]oxypropyl4-[3-(1,3-dioxo-2,3-dihydro-1H-benzo[de]isoquinolin-2-yl)propyl]hexahydro-1-pyrazinecarbodithioate]
ΔTm after incubation at 37° C. for 0 h (calf thymus DNA (CT-DNA)): 3.1 °C
ΔTm after incubation at 37° C. for 18 h (calf thymus DNA (CT-DNA)): 3.3 °C

COc1cc2c(cc1OCCCCSC(=S)N1CCN(CCCN3C(=O)c4cccc5cccc(c45)C3=O)CC1)N=C[C@@H]1CCCN1C2=O [Compound 13c, 4-[(11aS)-7-(methyloxy)-5-oxo-2,3,5,11a-tetrahydro-1H-benzo[e]pyrrolo[1,2-a][1,4]diazepin-8-yl]oxybutyl4-[3-(1,3-dioxo-2,3-dihydro-1H-benzo[de]isoquinolin-2-yl)propyl]hexahydro-1-pyrazinecarbodithioate]
ΔTm after incubation at 37° C. for 0 h (calf thymus DNA (CT-DNA)): 5.0 °C
ΔTm after incubation at 37° C. for 18 h (calf thymus DNA (CT-DNA)): 5.0 °C

COc1cc2c(cc1OCCCCCSC(=S)N1CCN(CCCN3C(=O)c4cccc5cccc(c45)C3=O)CC1)N=C[C@@H]1CCCN1C2=O [Compound 13d, 5-[(11aS)-7-(methyloxy)-5-oxo-2,3,5,11a-tetrahydro-1H-benzo[e]pyrrolo[1,2-a][1,4]diazepin-8-yl]oxypentyl4-[3-(1,3-dioxo-2,3-dihydro-1H-benzo[de]isoquinolin-2-yl)propyl]hexahydro-1-pyrazinecarbodithioate]
ΔTm after incubation at 37° C. for 0 h (calf thymus DNA (CT-DNA)): 4.0 °C
ΔTm after incubation at 37° C. for 18 h (calf thymus DNA (CT-DNA)): 4.6 °C

COc1cc2c(cc1OCCCCSC(=S)N1CCN(C)CC1)N=C[C@@H]1CCCN1C2=O [Compound 14c, 4-[(11aS)-7-(methyloxy)-5-oxo-2,3,5,11a-tetrahydro-1H-benzo[e]pyrrolo[1,2-a][1,4]diazepin-8-yl]oxybutyl4-methylhexahydro-1-pyrazinecarbodithioate]
ΔTm after incubation at 37° C. for 0 h (calf thymus DNA (CT-DNA)): 2.1 °C
ΔTm after incubation at 37° C. for 18 h (calf thymus DNA (CT-DNA)): 2.2 °C
Preliminary in vitro cytotoxicity data (Lung A-549; [2]): 50
Preliminary in vitro cytotoxicity data (Colon HCT-15; [2]): 82%
Preliminary in vitro cytotoxicity data (Neuroblastoma IMR-32; [2]): 86
Preliminary in vitro cytotoxicity data (Ovary OVCAR-5; [2]): 36
Preliminary in vitro cytotoxicity data (Liver HEP-2; [2]): 66%
Preliminary in vitro cytotoxicity data (Colon 502713): 75

COc1cc2c(cc1OCCCCCSC(=S)N1CCN(C)CC1)N=C[C@@H]1CCCN1C2=O [Compound 14d, 5-[(11aS)-7-(methyloxy)-5-oxo-2,3,5,11a-tetrahydro-1H-benzo[e]pyrrolo[1,2-a][1,4]diazepin-8-yl]oxypentyl4-methylhexahydro-1-pyrazinecarbodithioate]
ΔTm after incubation at 37° C. for 0 h (calf thymus DNA (CT-DNA)): 6.0 °C
ΔTm after incubation at 37° C. for 18 h (calf thymus DNA (CT-DNA)): 10.9 °C
Preliminary in vitro cytotoxicity data (Lung A-549; [2]): 31
Preliminary in vitro cytotoxicity data (Colon HCT-15; [2]): 50%
Preliminary in vitro cytotoxicity data (Neuroblastoma IMR-32; [2]): 95
Preliminary in vitro cytotoxicity data (Ovary OVCAR-5; [2]): 22
Preliminary in vitro cytotoxicity data (Liver HEP-2; [2]): 66%
Preliminary in vitro cytotoxicity data (Colon 502713): 78

COc1cc2c(cc1O)N=CC1CCCN1C2=O (stereo not shown) [DC-81, reference compound]
ΔTm after incubation at 37° C. for 0 h (calf thymus DNA (CT-DNA)): 0.3 °C
ΔTm after incubation at 37° C. for 18 h (calf thymus DNA (CT-DNA)): 0.7 °C
